Laboratory results as given in US20260297080A1, “BICYCLIC COMPOUNDS AS CDK INHIBITORS” (BeOne Medicines I GmbH, priority 2022, published 2026).

Legend:
CDK2/Cyclin E1 = CDK2/Cyclin E1 (Homo sapiens, UniProt P24941); test: CDK2/Cyclin E1 Biochemical Assay (TR-FRET), 0.060 mM ATP; settings: 0.15 μM Rb (Ser780)-biotin substrate, pH7.0, 60 min preincubation, 120 min reaction, room temperature
Procedure, shortened: (§1)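 IC50 was from a four-parameter logistic fit of the 665/620 nm TR-FRET ratio (Eu anti-pRb Ser780 mAb, streptavidin-XL665). Compound (0-10 μM) was preincubated 60 min with enzyme, then reacted 120 min at room temperature with 0.15 μM biotinylated Rb (Ser780) peptide. ATP was 0.015 mM for CDK1/Cyclin B1 and 0.060 mM for CDK2/Cyclin E1; buffer was HEPES pH7.0.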

CDK1/Cyclin B1 = CDK1/Cyclin B1 (Homo sapiens, UniProt P06493); test: CDK1/Cyclin B1 Biochemical Assay (TR-FRET), 0.015 mM ATP; settings: 0.15 μM Rb (Ser780)-biotin substrate, pH7.0, 60 min preincubation, 120 min reaction, room temperature
Chain of CDK1/Cyclin B1 (P06493 whole entry): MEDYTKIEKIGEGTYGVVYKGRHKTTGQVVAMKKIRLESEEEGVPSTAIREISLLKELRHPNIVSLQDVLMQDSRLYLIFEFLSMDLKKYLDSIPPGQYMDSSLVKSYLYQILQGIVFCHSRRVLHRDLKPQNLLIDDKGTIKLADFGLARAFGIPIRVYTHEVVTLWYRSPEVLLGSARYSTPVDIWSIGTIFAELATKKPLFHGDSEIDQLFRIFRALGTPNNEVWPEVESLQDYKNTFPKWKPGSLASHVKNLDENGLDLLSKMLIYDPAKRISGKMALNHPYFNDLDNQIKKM
Chain of CDK1/Cyclin B1 (P14635 whole entry partner): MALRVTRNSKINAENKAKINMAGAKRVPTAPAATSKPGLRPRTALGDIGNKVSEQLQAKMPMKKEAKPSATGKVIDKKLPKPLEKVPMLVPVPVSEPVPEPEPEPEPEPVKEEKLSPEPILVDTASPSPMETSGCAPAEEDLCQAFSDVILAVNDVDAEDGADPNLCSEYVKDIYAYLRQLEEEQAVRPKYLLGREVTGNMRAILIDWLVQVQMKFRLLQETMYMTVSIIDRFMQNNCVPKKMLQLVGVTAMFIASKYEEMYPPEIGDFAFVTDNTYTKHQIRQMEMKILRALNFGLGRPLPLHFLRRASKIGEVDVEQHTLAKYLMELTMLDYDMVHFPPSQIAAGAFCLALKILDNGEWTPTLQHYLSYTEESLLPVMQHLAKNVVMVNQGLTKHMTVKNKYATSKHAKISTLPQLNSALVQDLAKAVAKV
Procedure, shortened: as §1

Row | Structure (SMILES) | IC50 (CDK2/Cyclin E1) [nM] | IC50 (CDK1/Cyclin B1) [nM]
1 | O=C(O[C@H]1CC[C@@H](c2cc(Nc3ccc4c(c3)CNS4(=O)=O)n[nH]2)C1)N1CCC(O)C1 (relative stereo) [Example 175, cis-3-(3-((1,1-dioxido-2,3-dihydrobenzo[d]isothiazol-5-yl)amino)-1H-pyrazol-5-yl)cyclopentyl 3-hydroxypyrrolidine-1-carboxylate] | 10 | 359
2 | CC(C)NC(=O)O[C@H]1CC[C@@H](c2cc(Nc3ccc4c(c3F)CN(C3CCC3O)S4(=O)=O)n[nH]2)C1 (single isomer, unassigned) [Example 102, cis-3-(3-((4-fluoro-2-(2-hydroxycyclobutyl)-1,1-dioxido-2,3-dihydrobenzo[d]isothiazol-5-yl)amino)-1H-pyrazol-5-yl)cyclopentyl isopropylcarbamate] | 5.1 | 406
3 | COCC(C)NC(=O)O[C@H]1CC[C@@H](c2cc(Nc3ccc4c(c3F)CN(C3CC3)S4(=O)=O)n[nH]2)C1 (relative stereo) [Example 361, cis-3-(3-((2-cyclopropyl-4-fluoro-1,1-dioxido-2,3-dihydrobenzo[d]isothiazol-5-yl)amino)-1H-pyrazol-5-yl)cyclopentyl(1-methoxypropan-2-yl)carbamate] | 8.4 | 349
4 | CC(C)NC(=O)O[C@H]1CC[C@@H](c2cc(Nc3ccc4c(c3)CS(=O)(=O)N4CC(F)(F)F)n[nH]2)C1 (relative stereo) [Example 205, cis-3-(3-((2,2-dioxido-1-(2,2,2-trifluoroethyl)-1,3-dihydrobenzo[c]isothiazol-5-yl)amino)-1H-pyrazol-5-yl)cyclopentyl isopropylcarbamate] | 7.5 | 41
5 | CC(C)NC(=O)O[C@H]1CC[C@@H](c2cc(Nc3cnc4c(c3)CN(C)S4(=O)=O)n[nH]2)C1 (relative stereo) [Example 32, cis-3-(3-((2-methyl-1,1-dioxido-2,3-dihydroisothiazolo[5,4-b]pyridin-5-yl)amino)-1H-pyrazol-5-yl)cyclopentyl isopropylcarbamate] | 21 | 424
6 | [2H]C([2H])([2H])N1Cc2c(ccc(Nc3cc([C@@H]4CC[C@H](OC(=O)N[C@@H](C)CC)C4)[nH]n3)c2F)S1(=O)=O (relative stereo) [Example 131, cis-3-(3-((4-fluoro-2-(methyl-d3)-1,1-dioxido-2,3-dihydrobenzo[d]isothiazol-5-yl)amino)-1H-pyrazol-5-yl)cyclopentyl((S)-sec-butyl)carbamate] | 1.4 | 152
7 | CC[C@H](C)NC(=O)O[C@H]1CC[C@@H](c2cc(Nc3cc4c(cc3F)NS(=O)(=O)C4)n[nH]2)C1 (relative stereo) [Example 294, cis-3-(3-((6-fluoro-2,2-dioxido-1,3-dihydrobenzo[c]isothiazol-5-yl)amino)-1H-pyrazol-5-yl)cyclopentyl((S)-sec-butyl)carbamate] | 15 | 359
8 | CC(C)NC(=O)O[C@H]1CC[C@@H](c2cc(Nc3ccc4c(c3)CS(=O)(=O)N4CC3CCC3)n[nH]2)C1 (relative stereo) [Example 211, cis-3-(3-((1-(cyclobutylmethyl)-2,2-dioxido-1,3-dihydrobenzo[c]isothiazol-5-yl)amino)-1H-pyrazol-5-yl)cyclopentyl isopropylcarbamate] | 8.4 | 197
9 | CN1Cc2c(ccc(Nc3cc([C@@H]4CC[C@H](OC(=O)N[C@H]5CC[C@@](C)(O)CC5)C4)[nH]n3)c2F)S1(=O)=O (relative stereo) [Example 169, cis-3-(3-((4-fluoro-2-methyl-1,1-dioxido-2,3-dihydrobenzo[d]isothiazol-5-yl)amino)-1H-pyrazol-5-yl)cyclopentyl((1s,4s)-4-hydroxy-4-methylcyclohexyl)carbamate] | 7.4 | 471
10 | CC(C)NC(=O)O[C@H]1CC[C@@H](c2cc(Nc3ccc4c(c3)CS(=O)(=O)N4CC3CN(C)C3)n[nH]2)C1 (relative stereo) [Example 213, cis-3-(3-((1-((1-methylazetidin-3-yl)methyl)-2,2-dioxido-1,3-dihydrobenzo[c]isothiazol-5-yl)amino)-1H-pyrazol-5-yl)cyclopentyl isopropylcarbamate] | 2.7 | 30
11 | CC(C)NC(=O)O[C@H]1CC[C@@H](c2cc(Nc3ccc4c(c3F)CN(C3CCN(C)CC3)S4(=O)=O)n[nH]2)C1 (relative stereo) [Example 62, cis-3-(3-((4-fluoro-2-(1-methylpiperidin-4-yl)-1,1-dioxido-2,3-dihydrobenzo[d]isothiazol-5-yl)amino)-1H-pyrazol-5-yl)cyclopentyl isopropylcarbamate] | 9.5 | 758
12 | CC1(NC(=O)O[C@H]2CC[C@@H](c3cc(Nc4ccc5c(c4F)CN(C4CC4)S5(=O)=O)n[nH]3)C2)CCOC1 (relative stereo) [Example 358, cis-3-(3-((2-cyclopropyl-4-fluoro-1,1-dioxido-2,3-dihydrobenzo[d]isothiazol-5-yl)amino)-1H-pyrazol-5-yl)cyclopentyl(3-methyltetrahydrofuran-3-yl)carbamate] | 2.6 | 221
13 | O=C(NC12CC(C1)C2)O[C@H]1CC[C@@H](c2cc(Nc3ccc4c(c3F)CNS4(=O)=O)n[nH]2)C1 (relative stereo) [Example 150, cis-3-(3-((4-fluoro-1,1-dioxido-2,3-dihydrobenzo[d]isothiazol-5-yl)amino)-1H-pyrazol-5-yl)cyclopentyl bicyclo[1.1.1]pentan-1-ylcarbamate] | 0.3 | 24

Further lines, results first:

Row | IC50 (CDK2/Cyclin E1) [nM] | IC50 (CDK1/Cyclin B1) [nM] | Structure (SMILES)
14 | 3.2 | 428 | CC[C@H](C)NC(=O)O[C@H]1CC[C@@H](c2cc(Nc3ccc4c(c3F)C(C)NS4(=O)=O)n[nH]2)C1 (single isomer, unassigned) [Example 54d]
15 | 5.3 | 334 | CCCNC(=O)O[C@H]1CC[C@@H](c2cc(Nc3ccc4c(c3F)CS(=O)(=O)N4C)n[nH]2)C1 (single isomer, unassigned) [Example 256a, cis-3-(3-((4-fluoro-1-methyl-2,2-dioxido-1,3-dihydrobenzo[c]isothiazol-5-yl)amino)-1H-pyrazol-5-yl)cyclopentyl propylcarbamate]
16 | 3.1 | 160 | CC(C)NC(=O)O[C@H]1CC[C@@H](c2cc(Nc3ccc4c(c3F)CS(=O)(=O)N4C3CC3)n[nH]2)C1 (single isomer, unassigned) [Example 275b, cis-3-(3-((1-cyclopropyl-4-fluoro-2,2-dioxido-1,3-dihydrobenzo[c]isothiazol-5-yl)amino)-1H-pyrazol-5-yl)cyclopentyl isopropylcarbamate]
17 | 1.2 | 36 | CC1(NC(=O)O[C@@H]2CC[C@H](c3cc(Nc4ccc5c(c4F)CS(=O)(=O)N5)n[nH]3)C2)CC1 (single isomer, unassigned) [Example 388a]
18 | 9.3 | 359 | CC(C)NC(=O)O[C@H]1CC[C@@H](c2cc(Nc3cc4c(cc3F)S(=O)(=O)NC4)n[nH]2)C1 (single isomer, unassigned) [Example 12b, cis-3-(3-((6-fluoro-1,1-dioxido-2,3-dihydrobenzo[d]isothiazol-5-yl)amino)-1H-pyrazol-5-yl)cyclopentyl isopropylcarbamate]
